Measured values taken from paper PMC10202811 (Nature Medicine, 2023).
Where “and” joins values, the source holds several entries; their conditions need not be identical. Equal entries are not always repeated. Entries after “also recorded” stand apart in the source; their conditions may differ.

How the values were obtained:
[1] = tested on: ALK-driven refractory or relapsed neuroblastoma; assay: Progression-free survival and overall survival (Kaplan-Meier) by cohort; format: in vivo, human; details: individual patients (PID); for PFS status: source data of Figure 3; for PFS time, years since on study: time is censored where PFS status is No event; for OS time, years since on study: time is censored where vital status is Alive
From the text: Supplement 41591_2023_2297_MOESM8_ESM.xlsx, sheet "Figure 3" | column: PFS status; PFS time, years since on study; Vital status; OS time, years since on study

[2] = adults with NSCLC; cited from earlier work
[3] = tested on: ALK-driven refractory or relapsed neuroblastoma; assay: Soft tissue response by RECIST; format: in vivo, human
From the text: Patients underwent disease staging at baseline, after courses 2 and 4 and then every four courses thereafter. The primary endpoint for response analysis is the BOR, defined as the best response observed before progression or start of another therapy. […] Response was graded according to the NANT response criteria version 2.0 (ref. [26]), modified from the International Neuroblastoma Response Criteria (INRC)[48]. NANT response criteria use three components for assessment of overall response: soft tissue response assessed by anatomical imaging and avidity on MIBG or FDG-PET; bone response assessed by uptake in bone by MIBG or bone involvement on FDG-PET; and bone marrow response assessed by morphology on bilateral aspirates and biopsies. Each response component (soft tissue, bone and bone marrow) are graded as CR, PR, SD and PD. Overall response grading is defined as: CR, if a response of CR in all components that are involved at baseline; PR, if a response of PR or better in all involved components; MR, if a response of PR or better but with at least one involved component as SD and no PD in all involved components; SD, if a response of SD in all involved components; and PD, if a response of PD in at least one involved component. The overall response definitions are identical to overall responses (CR, PR, SD and PD) as defined by the INRC. Response assessment is initially performed by sites and reviewed against source documents by NANT operations. Additional blinded central review of all radiological or pathological data was conducted for patients with overall PR or better and, in addition, radiologic pathological data of all involved sites for patients with MR to assign the final BOR on this study. Response by MIBG was determined using the Curie criteria. RR was determined as the proportion of patients with BOR of CR and PR in each cohort. […]

## C[C@H]1Oc2cc(cnc2N)-c2c(nn(C)c2C#N)CN(C)C(=O)c2ccc(F)cc21 [Lorlatinib, (10R)-7-amino-12-fluoro-2,10,16-trimethyl-15-oxo-10,15,16,17-tetrahydro-2H-8,4-(metheno)pyrazolo[4,3-h][2,5,11]-benzoxadiazacyclotetradecine-3-carbonitrile]
[1]; cohort A1
  Vital status: Alive; also recorded: Deceased
  PFS status: No event; also recorded: Relapsed/Deceased
  PFS time, years since on study: 3.67 years and 0.13 years and 2.37 years and 0.10 years and 1.50 years and 0.08 years and 3.43 years and 0.31 years and 0.0657 years and 1.07 years and 1.17 years and 0.15 years and 0.30 years and 4.15 years and 0.28 years and 0.11 years and 0.16 years
  OS time, years since on study: 3.67 years and 0.74 years and 3.43 years and 0.10 years and 1.50 years and 0.40 years and 0.36 years and 0.32 years and 0.39 years and 0.16 years and 2.28 years and 1.68 years and 0.20 years and 1.46 years and 1.11 years and 0.48 years and 0.56 years and 0.37 years and 4.15 years and 0.65 years and 0.63 years
[1]; cohort A2
  Vital status: Alive; also recorded: Deceased
  PFS status: No event; also recorded: Relapsed/Deceased
  PFS time, years since on study: 4.39 years and 0.15 years and 0.82 years and 1.03 years and 0.80 years and 2.07 years and 0.89 years and 0.77 years and 0.32 years and 2.48 years and 2.24 years and 1.46 years and 1.34 years and 0.93 years and 0.73 years
  OS time, years since on study: 4.39 years and 0.51 years and 1.86 years and 1.14 years and 1.78 years and 3.47 years and 0.89 years and 1.27 years and 1.10 years and 2.48 years and 2.24 years and 1.46 years and 1.34 years and 0.93 years and 0.73 years
[1]; cohort B2
  Vital status: Deceased; also recorded: Alive
  PFS status: Relapsed/Deceased; also recorded: No event
  PFS time, years since on study: 0.50 years and 0.66 years and 0.13 years and 0.45 years and 1.28 years and 0.06 years and 0.44 years and 0.70 years and 0.16 years
  OS time, years since on study: 1.16 years and 0.66 years and 0.41 years and 0.79 years and 1.28 years and 0.22 years and 0.44 years and 0.70 years and 0.54 years
[2]
  adult RP2D: 100 mg per day
[3]; Cohort A1, individual patient
  Soft tissue % change from baseline: 1% and -3.77% and -4% and -7% and -17% and -21% and -29% and -36% and -41% and -50% and -63% and -70% and -100% and 200% and 121% and 100% and 61% and 20% and 6%
[3]; Cohort A2, individual patient
  Soft tissue % change from baseline: 1% and -11% and -23% and -27% and -28% and -30% and -41% and -68%
[3]; Cohort B2, individual patient
  Soft tissue % change from baseline: 1% and -9% and -12% and -45%
